Twelve compounds from ChEMBL document CHEMBL1152642, “Semisynthetic latrunculin B analogs: studies of actin docking support a proposed mechanism for latrunculin bioactivity” (Bioorg Med Chem, 2009) can be followed below.

Common to all, as to type: functional, organism-based
The subject of one assay is Saccharomyces cerevisiae. The experiment in a line: Antimicrobial activity against Saccharomyces cerevisiae NRRL Y2034 by twofold dilution method.
A further assay concerns Candida albicans. The experiment in a line: Antimicrobial activity against Candida albicans by twofold dilution method.
Another assay relates to Aspergillus flavus. The experiment in a line: Antimicrobial activity against Aspergillus flavus NRRL 501 by twofold dilution method.

Active and inactive are the calls of the source. The calls are words filed in the database; no cut-off is given here.

For the compound `CO[C@]1([C@@H]2CSC(=O)N2C)C[C@H]2C[C@@H](CC[C@H](C)/C=C\CC/C(C)=C\C(=O)O2)O1`, the outcome in the assay on Saccharomyces cerevisiae, in the assay on Candida albicans and in the assay with Aspergillus flavus was inactive.
As to `CCCCCCCCN1C(=O)SC[C@H]1[C@@]1(OC)C[C@H]2C[C@@H](CC[C@H](C)/C=C\CC/C(C)=C\C(=O)O2)O1`, the outcome with Saccharomyces cerevisiae, in the assay with Candida albicans and in the assay on Aspergillus flavus was inactive.
For `CCCCCCCCCN1C(=O)SC[C@H]1[C@@]1(OC)C[C@H]2C[C@@H](CC[C@H](C)/C=C\CC/C(C)=C\C(=O)O2)O1`, the outcome with Saccharomyces cerevisiae, in the assay on Candida albicans and in the assay with Aspergillus flavus was inactive.
In the case of `CO[C@]1([C@@H]2CSC(=O)N2)C[C@H]2C[C@@H](CC[C@H](C)/C=C\CC/C(C)=C\C(=O)O2)O1`, the result in the assay with Saccharomyces cerevisiae, in the assay on Candida albicans and with Aspergillus flavus was inactive.
For `CCCCCN1C(=O)SC[C@H]1[C@@]1(OC)C[C@H]2C[C@@H](CC[C@H](C)/C=C\CC/C(C)=C\C(=O)O2)O1`, the result in the assay on Saccharomyces cerevisiae, in the assay on Candida albicans and in the assay on Aspergillus flavus was inactive.
Consider `C/C1=C/C(=O)O[C@@H]2CC(CC[C@H](C)/C=C\C=C\CC1)O[C@@](O)([C@H]1CSC(=O)N1)C2`, for which the outcome in the assay with Saccharomyces cerevisiae, in the assay with Candida albicans and in the assay on Aspergillus flavus was Active.
Turning to `C/C1=C/C(=O)O[C@@H]2C[C@@H](CC[C@H](C)/C=C\CC1)O[C@@](O)([C@H]1CSC(=O)N1)C2`, the outcome in the assay on Saccharomyces cerevisiae, in the assay with Candida albicans and in the assay on Aspergillus flavus was Active.
With `CCCCCCCCCCN1C(=O)SC[C@H]1[C@@]1(OC)C[C@H]2C[C@@H](CC[C@H](C)/C=C\CC/C(C)=C\C(=O)O2)O1`, the result in the assay with Saccharomyces cerevisiae, in the assay with Candida albicans and with Aspergillus flavus was inactive.
`CCCCCCN1C(=O)SC[C@H]1[C@@]1(OC)C[C@H]2C[C@@H](CC[C@H](C)/C=C\CC/C(C)=C\C(=O)O2)O1`: the outcome with Saccharomyces cerevisiae, in the assay with Candida albicans and in the assay with Aspergillus flavus was inactive.
As for `C/C1=C/C(=O)O[C@@H]2C[C@@H](CC[C@H](C)/C=C\C=C\CC1)O[C@@](O)([C@@H]1CSC(=O)N1)C2`, the outcome in the assay with Saccharomyces cerevisiae, with Candida albicans and in the assay with Aspergillus flavus was Active.
As for `CCCCCCCCCCN1C(=O)SC[C@H]1[C@@]1(O)C[C@H]2C[C@@H](CC[C@H](C)/C=C\CC/C(C)=C\C(=O)O2)O1`, the outcome with Saccharomyces cerevisiae, in the assay with Candida albicans and in the assay with Aspergillus flavus was inactive.
Regarding `C/C1=C/C(=O)O[C@@H]2C[C@@H](CC[C@H](C)/C=C\CC1)O[C@@](O)([C@@H]1CSC(=O)N1)C2`, the result with Saccharomyces cerevisiae, in the assay on Candida albicans and in the assay on Aspergillus flavus was Active.
